The experiment concerns the target T1, CsDOP1 (Chilo suppressalis, UniProt A0A0K0QVU3).
T1 construct: gene DOP1; receptor in pcDNA3, stably expressed in HEK 293 cells; GPCR coupled to Gs (cAMP increase)
T1 sequence (A0A0K0QVU3 1-409): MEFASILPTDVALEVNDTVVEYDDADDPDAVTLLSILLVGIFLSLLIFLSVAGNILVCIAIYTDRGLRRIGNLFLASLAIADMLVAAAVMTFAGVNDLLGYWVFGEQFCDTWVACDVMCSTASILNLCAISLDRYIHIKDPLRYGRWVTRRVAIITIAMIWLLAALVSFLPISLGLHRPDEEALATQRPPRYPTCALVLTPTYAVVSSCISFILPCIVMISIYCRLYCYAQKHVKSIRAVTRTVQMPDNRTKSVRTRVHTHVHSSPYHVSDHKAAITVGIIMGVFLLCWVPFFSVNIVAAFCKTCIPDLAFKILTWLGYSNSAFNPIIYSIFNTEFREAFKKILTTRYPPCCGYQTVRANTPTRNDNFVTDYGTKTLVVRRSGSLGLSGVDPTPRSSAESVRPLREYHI
As to the kind of experiment: intracellular cAMP accumulation. The experiment is classed as cell-based.

In turn, `NCCc1ccc(O)c(O)c1` [dopamine] came in with an EC50 of 1.93 nM.

The record behind these values is paper PMC4503959, “Dopamine modulates hemocyte phagocytosis via a D1-like receptor in the rice stem borer, Chilo suppressalis” (Scientific Reports, 2015).
